Key:
Assay type in all cases: cell-based
[1] = test system: Moraxella catarrhalis 1502; assay: conventional MIC assay, Moraxella catarrhalis 1502; conditions: against Moraxella catarrhalis 1502
Experimental: (§1) Compounds of the present invention were assessed for anti-bacterial activity in a conventional MIC assay against a range of pathogenic organisms.

[2] = test system: Streptococcus pneumoniae 1629; assay: conventional MIC assay, Streptococcus pneumoniae 1629; conditions: against Streptococcus pneumoniae 1629
Experimental: as §1

[3] = test system: Staphylococcus aureus Oxford; assay: conventional MIC assay, Staphylococcus aureus Oxford; conditions: against Staphylococcus aureus Oxford
Experimental: as §1

[4] = test system: Haemophilus influenzae Q1; assay: conventional MIC assay, Haemophilus influenzae Q1; conditions: against Haemophilus influenzae Q1
Experimental: as §1

Measured: MIC

C=C[C@]1(C)C[C@@H](OC(=O)NC(=O)OCCN2CCN(S(N)(=O)=O)CC2)[C@]2(C)[C@H](C)CC[C@]3(CCC(=O)[C@H]32)[C@@H](C)[C@@H]1O [Example 121]
≤ 4 µg/mL: all assays above

C=C[C@]1(C)C[C@@H](OC(=O)NC(=O)OCCN2CCN(C=O)CC2)[C@]2(C)[C@H](C)CC[C@]3(CCC(=O)[C@H]32)[C@@H](C)[C@@H]1O [Example 120, Mutilin 14-[N-(2-(4-formylpiperazin-1-yl)ethyloxycarbonyl)]carbamate]
≤ 4 µg/mL: all assays above

C=C[C@]1(C)C[C@@H](OC(=O)NC(=O)O[C@@H]2CO[C@H]3[C@@H]2OC[C@@H]3N)[C@]2(C)[C@H](C)CC[C@]3(CCC(=O)[C@H]32)[C@@H](C)[C@@H]1O [Example 122, Mutilin 14-[N-(((3R,3aR,6S,6aR)-6-amino-hexahydrofuro[3,2-b]furan-3-yl)oxycarbonyl)]carbamate]
≤ 4 µg/mL: all assays above

C=C[C@]1(C)C[C@@H](OC(=O)NC(=O)OC2CN(N)C2)[C@]2(C)[C@H](C)CC[C@]3(CCC(=O)[C@H]32)[C@@H](C)[C@@H]1O [Example 130, Mutilin 14-[N-(1-aminoazetidin-3-yloxycarbonyl)]-carbamate]
≤ 4 µg/mL: all assays above

C=C[C@]1(C)C[C@@H](OC(=O)NC(=O)OC2CN(CC#N)C2)[C@]2(C)[C@H](C)CC[C@]3(CCC(=O)[C@H]32)[C@@H](C)[C@@H]1O [Example 129, Mutilin 14-[N-(1-cyanomethylazetidin-3-yloxycarbonyl)]-carbamate]
≤ 4 µg/mL: all assays above

C=C[C@]1(C)C[C@@H](OC(=O)NC(=O)OCS(C)(=O)=O)[C@]2(C)[C@H](C)CC[C@]3(CCC(=O)[C@H]32)[C@@H](C)[C@@H]1O [Example 117, Mutilin 14-[N-(methylsulfonylmethoxycarbonyl)]carbamate]
≤ 4 µg/mL: all assays above

C=C[C@]1(C)C[C@@H](OC(=O)NC(=O)OC2CN(CC(N)=O)C2)[C@]2(C)[C@H](C)CC[C@]3(CCC(=O)[C@H]32)[C@@H](C)[C@@H]1O [Example 128, Mutilin 14-[N-(1-carbamoylmethylazetidin-3-yloxycarbonyl)]-carbamate]
≤ 4 µg/mL: all assays above

C=C[C@]1(C)C[C@@H](OC(=O)NC(=O)OCc2ncc(C(N)=O)c(N)n2)[C@]2(C)[C@H](C)CC[C@]3(CCC(=O)[C@H]32)[C@@H](C)[C@@H]1O [Example 116, Mutilin 14-[N-(4-amino-5-carboxamidopyrimidin-2-ylmethoxycarbonyl)]carbamate]
≤ 4 µg/mL: all assays above

C=C[C@]1(C)C[C@@H](OC(=O)NC(=O)O[C@H]2CN[C@H](C#N)C2)[C@]2(C)[C@H](C)CC[C@]3(CCC(=O)[C@H]32)[C@@H](C)[C@@H]1O [Example 126, Mutilin 14-[N-(5-(S)-cyanopyrrolidin-3-(R)-yloxycarbonyl)]carbamate]
≤ 4 µg/mL: all assays above

C=C[C@]1(C)C[C@@H](OC(=O)NC(=O)O[C@@H]2CCN(CC#N)C2)[C@]2(C)[C@H](C)CC[C@]3(CCC(=O)[C@H]32)[C@@H](C)[C@@H]1O [Example 123, Mutilin 14-[N-(1-cyanomethylpyrrolidin-3-(R)-yloxycarbonyl)]carbamate]
≤ 4 µg/mL: all assays above

C=C[C@]1(C)C[C@@H](OC(=O)NC(=O)O[C@H]2COC[C@H]2OC(N)=O)[C@]2(C)[C@H](C)CC[C@]3(CCC(=O)[C@H]32)[C@@H](C)[C@@H]1O (racemic) [Example 118, Mutilin 14-[N-(cis-4-carbamoyloxytetrahydrofuran-3-yloxycarbonyl)]carbamate]
≤ 4 µg/mL: all assays above

C=C[C@]1(C)C[C@@H](OC(=O)NC(=O)OCc2cnc(N)c(C(N)=O)n2)[C@]2(C)[C@H](C)CC[C@]3(CCC(=O)[C@H]32)[C@@H](C)[C@@H]1O [Example 119]
≤ 4 µg/mL: all assays above
